# Laboratory results taken from PMC9004346, “Development of small cyclic peptides targeting the CK2α/β interface” (Chemical Communications (Cambridge, England), 2022).
# Numbering of substitutions follows the chain as printed. *1 amine or outer side, *2 acyl side, *3 side chain or, on linkers, in order; H or OH if unused. Where a SMILES comes first, the peptide text is derived from it. Bridges are numbered along the chain shown (N, C = ends). Side-chain parts run from the residue outwards. [ ]: non-standard residue; d: D form. The star is where a group is joined. Trp(2-yl) = O=C([C@H](Cc1c([*:3])[nH]c2ccccc12)N[*:1])[*:2]; X1 = CN(CC(=O)O)c1nc(CC[*:1])cc(CC[*:2])n1; Dap(N3) = [N-]=[N+]=NC[C@H](N)C(=O)O; mXylylene = c1cc(C[*:1])cc(C[*:2])c1; CH2COCH2 = O=C(C[*:1])C[*:2]; Lauroyl = CCCCCCCCCCCC(=O)*; hCys = N[C@@H](CCS)C(=O)O; AEEA = NCCOCCOCC(=O)O; CH2 = C([*:1])[*:2]
# System: not listed separately
# Assay: MTT cell viability assay in HeLa cells
# Type: cell-based
# Settings: human; HeLa cells, 48 h, 50 μM compound; ±standard deviation; read-out: Cell viability (%) 50 μM compound
# Protocol: HeLa cells were maintained in 5% CO2 in DMEM supplemented with 10% FBS, 2 mM L-glutamine, 100 U/mL penicillin and […] streptomycin, in an atmosphere containing 5% CO2.
# Cells were regularly passed and used for experiments within one month after thawing (10-15 […]
# 1.6.2 Cell viability assay
# Cell viability was assayed by 3-(4,5-dimethylthiazol-2-yl)-2,5-diphenyltetrazolium bromide (MTT) colorimetric assay. HeLa cells were plated on 96-well plates (20,000 cells per well in 100 μL). After 24 h, cells were treated with different concentrations of test compounds or vehicle alone (DMSO). One hour before the end of the incubations, 10 μL of MTT solution (5 mg/mL in PBS) were added to each well. Formazan crystals (proportional to the number of viable cells) were then dissolved by the addition of 20 μL/well of a pH 4.7 solution containing 20% (w:v) SDS, 50% (v:v) N,N-dimethylformamide, 2% (v:v) acetic acid, and 25 mM HCl, and quantified by recording the absorbance at 570 nm using an Infinite M200 PRO plate reader (TECAN, Life Sciences). […]
row,Molecule,"viability at 48 h, 50 µM [%]"
1,"O=C(O)c1ccc2c(c1)nc(Nc1cccc(Cl)c1)c1ccncc12 [CX-4945, reference compound]",29 ± 1

# Same assay, conditions: human; HeLa cells, 48 h, 100 μM compound; ±standard deviation; read-out: Cell viability (%) 100 μM compound
row,Molecule,"viability at 48 h, 100 µM [%]"
1,"O=C(O)c1ccc2c(c1)nc(Nc1cccc(Cl)c1)c1ccncc12 [CX-4945, reference compound]",21 ± 1

# Molecular target: T1, CK2α (Homo sapiens, UniProt P68400)
# T1 construct: 571 nM CK2α_WT (residues 2-329); made in house
# T1 sequence (P68400 2-329): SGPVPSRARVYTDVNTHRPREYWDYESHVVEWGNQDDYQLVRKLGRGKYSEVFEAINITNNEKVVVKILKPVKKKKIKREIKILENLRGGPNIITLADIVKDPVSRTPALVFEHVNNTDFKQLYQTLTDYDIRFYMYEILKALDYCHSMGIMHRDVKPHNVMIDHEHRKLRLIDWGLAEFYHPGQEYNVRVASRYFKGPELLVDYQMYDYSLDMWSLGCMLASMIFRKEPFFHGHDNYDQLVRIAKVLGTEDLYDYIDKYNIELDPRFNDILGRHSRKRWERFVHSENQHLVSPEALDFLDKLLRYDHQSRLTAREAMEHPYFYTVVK
# Assay: Fluorescence polarisation (FP) assay: displacement of a CK2β-like fluorescent probe from CK2α
# Type: binding
# Settings: CK2α_WT (residues 2-329), fluorescein-labelled CK2β-based peptide probe, ±SEM
# Text: To assess the ability of the synthesised linear peptides to displace a CK2β-like fluorescent probe from CK2α, a fluorescence polarisation (FP) assay was used (Table 1, ESI 1.3.2 and Fig. S2, ESI ^†). […]
# (§1) 1.5 Biophysical experiments
# (§2) 1.5.1 Protein expression and purification
# Three constructs of CK2α were used in this study. For FP assays, CK2α_WT was used (residues 2-329). […]
# These constructs were cloned, expressed, and purified as previously described.19 1.5.2 Fluorescence polarisation
# IC50’s were determined using a PHERAstar FS plate reader (BMG labtech). The fluorescein probe was measured using 485 nm excitation and 530 nm emission. The fluorescein probe was covalently linked to the N-terminus of the linear CK2β-based peptide RLYGFKIHPMAYQLQ. IC50’s were measured using 500, 167, 16.7, 8.33 and 0 μM of the test peptide at a constant concentration of DMSO. P7C8, P8C9, P+L and P+ were tested at concentrations of 50.0, 16.7, 1.67, 0.833 and 0 μM due to their higher potencies. The experiments were performed in a Corning 384-well plate with final concentrations of 571 nM CK2α_WT (residues 2-329), 7.4 μM fluorescent peptide (fluorescein probe was covalently linked to the N-terminus of the linear CK2β-based peptide RLYGFKIHPMAYQLQ), 200 mM NaCl, 40mM TRIS, 20 mM MgCl2 and pH 7.5. The plates were read after a 45 min incubation period. […]
row,IC50 [µM],Molecule
1,137 ± 25.8,"Ac-LYGFKW-NH2 [Peptide P2, LYGFKW]"
2,> 500,"Ac-RLYGFK-NH2 [Peptide P1, RLYGFK]"
3,22.5 ± 2.4,"Ac-RLYGFKW-NH2 [Peptide P3, RLYGFKW]"
4,16.7 ± 2.3,"Ac-RLYGFKWH-NH2 [Peptide P4, RLYGFKWH]"

# Further lines, the molecule ahead of its results:
row,Molecule,IC50 [µM]
1,"CC(=O)NCC(=O)N[C@H]1Cn2cc(nn2)-c2cc(C(=O)O)cc(c2)-c2cn(nn2)C[C@@H](C(=O)NCC(=O)NCC(N)=O)NC(=O)[C@H](Cc2c[nH]cn2)NC(=O)[C@H](Cc2c[nH]c3ccccc23)NC(=O)[C@H](CCCCN)NC(=O)[C@H](Cc2ccccc2)NC(=O)CNC(=O)[C@H](Cc2ccc(O)cc2)NC(=O)[C@H](CC(C)C)NC(=O)[C@H](CCCNC(=N)N)NC1=O [P+, GXC1RLYGFKWHXC1GG, reference compound]",8.7 ± 4.2
2,"CC(=O)NCC(=O)N[C@@H](CN=[N+]=[N-])C(=O)N[C@@H](CCCNC(=N)N)C(=O)N[C@@H](CC(C)C)C(=O)N[C@@H](Cc1ccc(O)cc1)C(=O)NCC(=O)N[C@@H](Cc1ccccc1)C(=O)N[C@@H](CCCCN)C(=O)N[C@@H](Cc1c[nH]c2ccccc12)C(=O)N[C@@H](Cc1c[nH]cn1)C(=O)N[C@@H](CN=[N+]=[N-])C(=O)NCC(=O)NCC(N)=O [P+L, reference compound] (Ac-G[Dap(N3)]RLYGFKWH[Dap(N3)]GG-NH2)",11.7
3,CC(=O)N[C@H]1CSCC(=O)CSC[C@@H](C(N)=O)NC(=O)[C@H](CCCCN)NC(=O)[C@H](Cc2ccccc2)NC(=O)CNC(=O)[C@H](Cc2ccc(O)cc2)NC(=O)[C@H](CC(C)C)NC(=O)[C@H](CCCNC(=N)N)NC1=O [Peptide P5C4] (Ac-CRLYGFKC-NH2; linker 1-8 via CH2COCH2),54.6 ± 11.2
4,CC(=O)N[C@H]1CSCc2cccc(c2)CSC[C@@H](C(N)=O)NC(=O)[C@H](CCCCN)NC(=O)[C@H](Cc2ccccc2)NC(=O)CNC(=O)[C@H](Cc2ccc(O)cc2)NC(=O)[C@H](CC(C)C)NC(=O)[C@H](CCCNC(=N)N)NC1=O [Peptide P5C5] (Ac-CRLYGFKC-NH2; linker 1-8 via mXylylene),28.9 ± 1.9
5,CC(=O)N[C@H]1CSCCc2cc(nc(N(C)CC(=O)O)n2)CCSC[C@@H](C(N)=O)NC(=O)[C@H](CCCCN)NC(=O)[C@H](Cc2ccccc2)NC(=O)CNC(=O)[C@H](Cc2ccc(O)cc2)NC(=O)[C@H](CC(C)C)NC(=O)[C@H](CCCNC(=N)N)NC1=O [Peptide P5C7] (Ac-CRLYGFKC-NH2; linker 1-8 via X1),40 ± 4.7
6,"CC(=O)N[C@H]1CSc2[nH]c3ccccc3c2C[C@@H](C(N)=O)NC(=O)[C@H](CCCCN)NC(=O)[C@H](Cc2ccccc2)NC(=O)CNC(=O)[C@H](Cc2ccc(O)cc2)NC(=O)[C@H](CC(C)C)NC(=O)[C@H](CCCNC(=N)N)NC1=O [Peptide P7C8, CC8RLYGFKWC8] (Ac-CRLYGFK[Trp(2-yl)]-NH2; thioether 1-8)",15.6 ± 5.1

# Molecular target: T2, CK2α (Homo sapiens, UniProt P68400, K74A/K75A/K76A/R21S)
# T2 construct: CK2α_KA (residues 2-329) contained four mutations; made in house
# T2 sequence (P68400 2-329 R21S/K74A/K75A/K76A): T1 sequence (P68400 2-329) with R20S, K73A, K74A, K75A
# Assay: Isothermal titration calorimetry (ITC) binding to CK2α
# Settings: 25 °C, CK2α_KA
# Text: Ligand efficiency (LE) is a commonly used statistic to evaluate and compare the effectiveness of drug candidates.17 Mathematically, it is related to the IC50 of the molecule, as well as the number of heavy atoms (non-hydrogen) it contains, as detailed in Equation 1. 18
# Equation 1 Mathematical expression for the ligand efficiencies of compounds.18 pIC50 = -log10(IC50) LE = Number of non ‒ H atoms […]
# greatest activity with the fewest heavy atoms.
# as §1, §2
# Three constructs of CK2α were used in this study. For FP assays, CK2α_WT was used (residues 2-329).
# For ITC CK2α_KA construct was used whilst CK2α_FP10 was used for crystallisation purposes. CK2α_KA (residues 2-329) contained four mutations designed to aid crystallisation and solubility by reducing the overall charge of the protein; R21S, K74A, K75A and K76A. CK2α_FP 10 contained one mutation (R21S) and an N-terminal extension […] aimed at mimicking a substrate peptide for CK2α. These constructs were cloned, expressed, and purified as previously described.19 1.5.2 Fluorescence polarisation
# IC50’s were determined using a PHERAstar FS plate reader (BMG labtech). The fluorescein probe was measured using 485 nm excitation and 530 nm emission. The fluorescein probe was covalently linked to the N-terminus of the linear CK2β-based peptide RLYGFKIHPMAYQLQ. IC50’s were measured using 500, 167, 16.7, 8.33 and 0 μM of the test peptide at a constant concentration of DMSO. P7C8, P8C9, P+L and P+ were tested at concentrations of 50.0, 16.7, 1.67, 0.833 and 0 μM due to their higher potencies. The experiments were performed in a Corning 384-well plate with final concentrations of 571 nM CK2α_WT (residues 2-329), 7.4 μM fluorescent peptide (fluorescein probe was covalently linked to the N-terminus of the linear CK2β-based peptide RLYGFKIHPMAYQLQ), 200 mM NaCl, 40mM TRIS, 20 mM MgCl2 and pH 7.5. The plates were read after a 45 min incubation period.
# 1.5.3 Isothermal titration calorimetry
# All ITC experiments were performed at 25 °C using a MicroCal ITC-200 (GE Healthcare). […]
row,Kd [µM],Molecule
1,1.3,CCCCCCCCCCCC(=O)NCCOCCOCC(=O)N[C@H]1CCSc2[nH]c3ccccc3c2C[C@@H](C(N)=O)NC(=O)[C@H](CCCCN)NC(=O)[C@H](Cc2ccccc2)NC(=O)CNC(=O)[C@H](Cc2ccc(O)cc2)NC(=O)[C@H](CC(C)C)NC(=O)[C@H](CCCNC(=N)N)NC1=O [FA-P8C9] ({Lauroyl-AEEA}-[hCys]RLYGFK[Trp(2-yl)]-NH2; thioether 1-8)
2,1.6,CC(=O)NCCOCCOCC(=O)NCCCC[C@@H]1NC(=O)[C@H](Cc2ccccc2)NC(=O)CNC(=O)[C@H](Cc2ccc(O)cc2)NC(=O)[C@H](CC(C)C)NC(=O)[C@H](CCCNC(=N)N)NC(=O)[C@@H](NC(C)=O)CCSc2[nH]c3ccccc3c2C[C@@H](C(N)=O)NC1=O [P8C9[PEG]] (Ac-[hCys]RLYGFK([AEEA-Ac])[Trp(2-yl)]-NH2; thioether 1-8 (inferred))

# System: not listed separately
# Assay: Solubility observations during FP and ITC testing
# Type: physicochemical
# Settings: observed during FP or ITC testing
row,Solubility (observation in words),Molecule
1,Precipitation,CCCCCCCCCCCC(=O)NCCOCCOCC(=O)NCCCC[C@@H]1NC(=O)[C@H](Cc2ccccc2)NC(=O)CNC(=O)[C@H](Cc2ccc(O)cc2)NC(=O)[C@H](CC(C)C)NC(=O)[C@H](CCCNC(=N)N)NC(=O)[C@@H](NC(C)=O)CCSc2[nH]c3ccccc3c2C[C@@H](C(N)=O)NC1=O [P8C9[FA]] (Ac-[hCys]RLYGFK([AEEA-Lauroyl])[Trp(2-yl)]-NH2; thioether 1-8)
2,poor solubility,CC(=O)N[C@H]1CSCSC[C@@H](C(N)=O)NC(=O)[C@H](CCCCN)NC(=O)[C@H](Cc2ccccc2)NC(=O)CNC(=O)[C@H](Cc2ccc(O)cc2)NC(=O)[C@H](CC(C)C)NC(=O)[C@H](CCCNC(=N)N)NC1=O [Peptide P5C6] (Ac-CRLYGFKC-NH2; linker 1-8 via CH2)
